Measurements as given in ChEMBL document CHEMBL4390687, “Dispiropyrrolidinyl-piperidone embedded indeno[1,2-b]quinoxaline heterocyclic hybrids: Synthesis, cholinesterase inhibitory activity and their molecular docking simulation” (Bioorg Med Chem, 2019).

Legend:
[1] = Selectivity index, ratio of IC50 for electric eel AChE to IC50 for equine serum BChE
[2] = Selectivity index, ratio of IC50 for equine serum BChE to IC50 for electric eel AChE
[3] = target: Cholinesterase (Equus caballus, UniProt P81908); assay: Inhibition of equine serum BChE using butyrylthiocholine chloride as substrate preincubated for 15 mins followed by substrate addition and measured after 30 mins by Ellman's method
Chain of Cholinesterase (P81908 whole entry): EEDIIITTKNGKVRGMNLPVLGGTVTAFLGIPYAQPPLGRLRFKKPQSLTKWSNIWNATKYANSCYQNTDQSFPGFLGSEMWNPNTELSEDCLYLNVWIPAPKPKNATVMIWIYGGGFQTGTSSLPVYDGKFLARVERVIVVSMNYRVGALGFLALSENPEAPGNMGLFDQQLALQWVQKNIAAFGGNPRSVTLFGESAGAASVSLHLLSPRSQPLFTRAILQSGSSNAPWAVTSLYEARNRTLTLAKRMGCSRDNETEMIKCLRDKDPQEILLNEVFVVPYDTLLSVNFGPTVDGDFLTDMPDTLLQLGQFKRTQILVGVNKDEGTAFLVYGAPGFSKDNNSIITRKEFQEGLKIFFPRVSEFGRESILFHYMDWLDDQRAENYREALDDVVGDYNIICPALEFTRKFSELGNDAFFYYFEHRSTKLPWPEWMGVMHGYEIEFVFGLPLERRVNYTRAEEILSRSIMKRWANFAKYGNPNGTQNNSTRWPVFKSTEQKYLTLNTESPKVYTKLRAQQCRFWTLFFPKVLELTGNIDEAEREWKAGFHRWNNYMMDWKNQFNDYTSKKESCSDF

[4] = target: Acetylcholinesterase (Electrophorus electricus, UniProt O42275); assay: Inhibition of electric eel AChE using acetylthiocholine iodide as substrate preincubated for 15 mins followed by substrate addition and measured after 30 mins by Ellman's method
Chain of Acetylcholinesterase (O42275 whole entry): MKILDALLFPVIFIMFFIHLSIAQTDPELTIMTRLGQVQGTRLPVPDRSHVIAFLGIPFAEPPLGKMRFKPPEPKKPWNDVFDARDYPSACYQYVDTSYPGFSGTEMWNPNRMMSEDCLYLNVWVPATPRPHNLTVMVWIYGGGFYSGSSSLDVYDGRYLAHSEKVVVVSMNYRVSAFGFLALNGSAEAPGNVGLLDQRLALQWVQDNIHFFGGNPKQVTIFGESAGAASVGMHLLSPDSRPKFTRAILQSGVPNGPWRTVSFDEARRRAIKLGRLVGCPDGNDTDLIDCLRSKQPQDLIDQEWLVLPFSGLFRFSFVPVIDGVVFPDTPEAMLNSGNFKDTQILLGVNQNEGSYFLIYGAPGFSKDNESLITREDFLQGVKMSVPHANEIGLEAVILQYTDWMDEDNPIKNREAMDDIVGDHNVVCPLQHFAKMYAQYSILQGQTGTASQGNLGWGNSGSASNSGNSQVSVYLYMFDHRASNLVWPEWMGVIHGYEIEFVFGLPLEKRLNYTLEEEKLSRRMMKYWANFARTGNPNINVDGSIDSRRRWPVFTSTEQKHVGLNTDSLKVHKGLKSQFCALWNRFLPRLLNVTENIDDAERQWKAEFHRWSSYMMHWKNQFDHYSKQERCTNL

Work on O=C1/C(=C/c2ccc(Cl)cc2Cl)CNCC12C(c1ccc(Cl)cc1Cl)C(Cc1c[nH]c3ccccc13)NC21c2ccccc2C2N=c3ccccc3=NC21 (stereo not given) yielded a Ratio IC50 [1] of 0.58, a Ratio IC50 [2] of 1.73 and an IC50 [3] of 17.6 µM. It also gave an IC50 [4] of 10.2 µM.

Compound O=C1/C(=C/c2cccc([N+](=O)[O-])c2)CNCC12C(c1cccc([N+](=O)[O-])c1)C(Cc1c[nH]c3ccccc13)NC21c2ccccc2C2N=c3ccccc3=NC21 (stereo not given) has a Ratio IC50 [1] of 0.19, a Ratio IC50 [2] of 5.2 and an IC50 [3] of 10.5 µM. The IC50 [4] was 2.01 µM.

Cc1cccc(/C=C2\CNCC3(C2=O)C(c2cccc(C)c2)C(Cc2c[nH]c4ccccc24)NC32c3ccccc3C3N=c4ccccc4=NC32)c1 (stereo not given) showed a Ratio IC50 [1] of 0.45, a Ratio IC50 [2] of 2.22 and an IC50 [3] of 15.2 µM. The IC50 [4] was 6.84 µM.

Work on Cc1ccc(/C=C2\CNCC3(C2=O)C(c2ccc(C)cc2)C(Cc2c[nH]c4ccccc24)NC32c3ccccc3C3N=c4ccccc4=NC32)cc1 (stereo not given) yielded a Ratio IC50 [1] of 0.26, a Ratio IC50 [2] of 3.85 and an IC50 [3] of 12.4 µM. The IC50 [4] was 3.22 µM.

O=C1/C(=C/c2ccccc2)CNCC12C(c1ccccc1)C(Cc1c[nH]c3ccccc13)NC21c2ccccc2C2N=c3ccccc3=NC21 (stereo not given) showed a Ratio IC50 [1] of 0.52, a Ratio IC50 [2] of 1.93 and an IC50 [3] of 14.2 µM. It also gave an IC50 [4] of 7.35 µM.

O=C1/C(=C/c2ccc(Cl)cc2)CNCC12C(c1ccc(Cl)cc1)C(Cc1c[nH]c3ccccc13)NC21c2ccccc2C2N=c3ccccc3=NC21 (stereo not given) showed a Ratio IC50 [1] of 0.67, a Ratio IC50 [2] of 1.5 and an IC50 [3] of 18.8 µM. For the same compound, the IC50 [4] was 12.5 µM.

In the case of O=C1/C(=C/c2ccccc2Cl)CNCC12C(c1ccccc1Cl)C(Cc1c[nH]c3ccccc13)NC21c2ccccc2C2N=c3ccccc3=NC21 (stereo not given), the Ratio IC50 [1] is reported as 0.62, the Ratio IC50 [2] is reported as 1.63 and the IC50 [3] is reported as 26.7 µM. The IC50 [4] was 16.4 µM.

With O=C1/C(=C/c2ccc(Br)cc2)CNCC12C(c1ccc(Br)cc1)C(Cc1c[nH]c3ccccc13)NC21c2ccccc2C2N=c3ccccc3=NC21 (stereo not given) the Ratio IC50 [1] was 0.74, the Ratio IC50 [2] was 1.35 and the IC50 [3] was 20.6 µM. It also gave an IC50 [4] of 15.2 µM.

With COc1ccc(/C=C2\CNCC3(C2=O)C(c2ccc(OC)cc2)C(Cc2c[nH]c4ccccc24)NC32c3ccccc3C3N=c4ccccc4=NC32)cc1 (stereo not given) the Ratio IC50 [1] was 0.31, the Ratio IC50 [2] was 3.22 and the IC50 [3] was 23.2 µM. For the same compound, the IC50 [4] was 7.2 µM.

Cc1ccccc1/C=C1\CNCC2(C1=O)C(c1ccccc1C)C(Cc1c[nH]c3ccccc13)NC21c2ccccc2C2N=c3ccccc3=NC21 (stereo not given) gave a Ratio IC50 [1] of 0.39, a Ratio IC50 [2] of 2.54 and an IC50 [3] of 14.7 µM. For the same compound, the IC50 [4] was 5.8 µM.
